The source of these data is ChEMBL document CHEMBL1201862, “PubChem BioAssay data set” (2004).

By IC50 is commonly meant the midpoint of a concentration-inhibition curve. What is called EC50 is the midpoint of the concentration-response curve.

The source made the active and inactive calls. A value given as a limit tells only on which side of the number the result lay.

In one test the target is Cytochrome P450 2C9 (Homo sapiens, UniProt P11712). Particulars: Potency.
Test [1] addresses T1, Cytochrome P450 2D6 (Homo sapiens, UniProt P10635). As to the kind of experiment: qHTS Assay for Inhibitors and Substrates of Cytochrome P450 2D6. [Related pubchem assays: 410 ]. The test is classed as ADME. The conditions noted are these: read-out: Potency.
For the next test, the target named is T2, Estrogen receptor (Homo sapiens, UniProt P03372).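 Further: potency for inhibiting coactivator peptide recruitment to the receptor.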
T2 sequence (P03372 whole entry): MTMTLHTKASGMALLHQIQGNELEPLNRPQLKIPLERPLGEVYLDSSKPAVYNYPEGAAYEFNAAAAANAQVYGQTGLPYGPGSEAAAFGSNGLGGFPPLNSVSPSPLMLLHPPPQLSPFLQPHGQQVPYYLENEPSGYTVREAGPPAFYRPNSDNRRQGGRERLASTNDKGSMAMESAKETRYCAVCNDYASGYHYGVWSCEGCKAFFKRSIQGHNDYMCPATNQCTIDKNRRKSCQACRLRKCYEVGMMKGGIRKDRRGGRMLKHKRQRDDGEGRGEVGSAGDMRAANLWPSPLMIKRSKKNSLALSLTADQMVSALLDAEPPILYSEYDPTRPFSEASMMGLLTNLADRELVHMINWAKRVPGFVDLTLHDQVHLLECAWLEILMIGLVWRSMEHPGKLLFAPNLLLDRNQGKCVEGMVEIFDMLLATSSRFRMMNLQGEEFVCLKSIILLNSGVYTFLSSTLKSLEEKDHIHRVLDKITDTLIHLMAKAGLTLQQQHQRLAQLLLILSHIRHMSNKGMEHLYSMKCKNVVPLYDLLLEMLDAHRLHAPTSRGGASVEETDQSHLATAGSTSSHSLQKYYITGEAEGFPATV

Test [2] has as its target Peroxisome proliferator-activated receptor gamma/Nuclear receptor coactivator 1 (Homo sapiens, UniProt P37231). As to the kind of experiment: TR-FRET dose response biochemical High Throughput Screening assay for agonists of the steroid receptor coactivator 1 (SRC-1) recruitment by the peroxisome proliferator-activated receptor gamma (PPAR gamma): non-selective agonists. [Related pubchem assays (depositor defined):AID1300, AID1808, AID504735, AID631]. The test is classed as protein assay.

In test [3] the target is Peroxisome proliferator-activated receptor gamma/Nuclear receptor coactivator 3 (Homo sapiens, UniProt P37231). Put plainly: TR-FRET dose response biochemical High Throughput Screening assay for agonists of the steroid receptor coactivator 3 (SRC-3) recruitment by the peroxisome proliferator-activated receptor gamma (PPAR gamma): non-selective agonists. [Related pubchem assays: 1301 (Confirmation screen.), 1048 (Primary screen.)]. The test is classed as functional. (In TR-FRET formats the signal depends on donor and acceptor labels being close together.)

The target in test [4] is Peroxisome proliferator-activated receptor gamma/Nuclear receptor coactivator 2 (Homo sapiens, UniProt P37231). Put plainly: TR-FRET dose response biochemical High Throughput Screening assay for agonists of the steroid receptor coactivator 2 (SRC-2) recruitment by the peroxisome proliferator-activated receptor gamma (PPAR gamma): non-selective agonists. [Related pubchem assays: 1297, 1032 ]. The class given is functional.

The target of a further test is T3, CAAX prenyl protease 2 (Saccharomyces cerevisiae S288c, UniProt Q03530).
T3 sequence (Q03530 whole entry): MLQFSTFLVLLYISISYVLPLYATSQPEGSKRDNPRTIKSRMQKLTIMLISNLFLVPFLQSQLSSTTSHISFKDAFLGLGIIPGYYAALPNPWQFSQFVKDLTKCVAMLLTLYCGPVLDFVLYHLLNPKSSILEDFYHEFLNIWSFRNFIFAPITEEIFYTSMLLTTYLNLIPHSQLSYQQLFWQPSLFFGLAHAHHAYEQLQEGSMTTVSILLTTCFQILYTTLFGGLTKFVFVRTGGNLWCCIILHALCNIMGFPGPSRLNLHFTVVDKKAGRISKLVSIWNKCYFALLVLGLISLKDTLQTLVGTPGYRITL
The class given is biochemical.

Another test has as its target Cytochrome P450 3A4 (Homo sapiens, UniProt P08684).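 Further: CYP3A4 tested as one member of a cytochrome P450 panel screen.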
The target in test [5] is T1, Cytochrome P450 2D6.
Test [6] concerns the target T4, Mannose-6-phosphate isomerase (Homo sapiens, UniProt P34949).
T4 sequence (P34949 whole entry): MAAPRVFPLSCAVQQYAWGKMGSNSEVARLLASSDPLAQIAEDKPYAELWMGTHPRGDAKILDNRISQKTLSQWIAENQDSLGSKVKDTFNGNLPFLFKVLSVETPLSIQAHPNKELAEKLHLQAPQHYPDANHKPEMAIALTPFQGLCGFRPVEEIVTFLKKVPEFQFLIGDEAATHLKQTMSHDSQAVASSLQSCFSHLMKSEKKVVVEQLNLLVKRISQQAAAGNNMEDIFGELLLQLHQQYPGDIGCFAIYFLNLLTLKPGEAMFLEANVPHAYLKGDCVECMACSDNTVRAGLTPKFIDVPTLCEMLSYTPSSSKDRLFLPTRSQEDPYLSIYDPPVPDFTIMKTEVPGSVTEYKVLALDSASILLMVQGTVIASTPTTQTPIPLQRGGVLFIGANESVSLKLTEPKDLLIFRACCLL
Put plainly: human PMI inhibitors, high substrate, primary screen, biochemical, fluorescence intensity, high mannose 6-phosphate (AID 1220).

Test [7] concerns the target G-protein coupled receptor 55 (Homo sapiens, UniProt Q9Y2T6). Put plainly: GPR55 agonists via beta-arrestin recruitment, primary screen, imaging, U2OS cells, beta-arrestin-GFP redistribution (AID 1961). The test is classed as functional. In general terms: Activated receptors often draw arrestin, which recruitment assays turn into a signal.
For test [8], the target named is DNA dC->dU-editing enzyme APOBEC-3G (Homo sapiens, UniProt Q9HC16). The test is classed as functional.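 Further: Dose-response counterscreen measuring inhibition of APOBEC3G DNA deaminase activity, run while confirming APOBEC3A inhibitors.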
Test [9] deals with DNA dC->dU-editing enzyme APOBEC-3A (Homo sapiens, UniProt P31941). As to the kind of experiment: Dose Response confirmation of small molecule APOBEC3A DNA Deaminase Inhibitors via a fluorescence-based single-stranded DNA deaminase assay. [Related pubchem assays (depositor defined):AID493011, AID493024]. The test is classed as functional.
In test [10] the target is T5, Tyrosine-protein phosphatase non-receptor type 7 (Homo sapiens, UniProt P35236).
T5 sequence (P35236 whole entry): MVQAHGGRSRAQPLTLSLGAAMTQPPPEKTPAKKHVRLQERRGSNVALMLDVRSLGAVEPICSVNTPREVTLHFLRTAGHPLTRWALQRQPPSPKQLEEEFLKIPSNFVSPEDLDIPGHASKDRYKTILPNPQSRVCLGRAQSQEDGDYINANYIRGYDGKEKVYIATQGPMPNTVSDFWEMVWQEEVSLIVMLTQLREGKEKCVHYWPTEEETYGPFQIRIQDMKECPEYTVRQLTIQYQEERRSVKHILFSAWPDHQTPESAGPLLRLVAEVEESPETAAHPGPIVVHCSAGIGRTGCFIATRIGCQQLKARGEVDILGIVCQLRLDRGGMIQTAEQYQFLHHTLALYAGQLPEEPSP
Put plainly: redox-dependent HePTP inhibition, mechanism study, biochemical, fluorescence (AID 2068). The class given is functional.

Test [11] has as its target T6, Dual specificity protein phosphatase 6 (Rattus norvegicus, UniProt Q64346).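 Further: confirmatory in vitro dose-response testing of MKP-3 inhibition; recombinant His-tagged MKP-3 made in E. coli BL21 with OMFP substrate.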
T6 sequence (Q64346 whole entry): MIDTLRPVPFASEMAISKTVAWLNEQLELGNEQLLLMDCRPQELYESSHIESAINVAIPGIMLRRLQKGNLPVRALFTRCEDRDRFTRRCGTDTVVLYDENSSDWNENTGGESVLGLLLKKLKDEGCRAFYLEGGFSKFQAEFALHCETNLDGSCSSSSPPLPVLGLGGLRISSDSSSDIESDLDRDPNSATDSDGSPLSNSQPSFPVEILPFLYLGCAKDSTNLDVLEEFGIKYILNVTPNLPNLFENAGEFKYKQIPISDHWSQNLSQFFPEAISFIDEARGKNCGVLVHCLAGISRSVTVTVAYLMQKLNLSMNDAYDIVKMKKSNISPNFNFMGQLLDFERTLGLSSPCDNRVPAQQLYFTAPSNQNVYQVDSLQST
The test is classed as functional.

Sequence of Cytochrome P450 2C9 (P11712 whole entry): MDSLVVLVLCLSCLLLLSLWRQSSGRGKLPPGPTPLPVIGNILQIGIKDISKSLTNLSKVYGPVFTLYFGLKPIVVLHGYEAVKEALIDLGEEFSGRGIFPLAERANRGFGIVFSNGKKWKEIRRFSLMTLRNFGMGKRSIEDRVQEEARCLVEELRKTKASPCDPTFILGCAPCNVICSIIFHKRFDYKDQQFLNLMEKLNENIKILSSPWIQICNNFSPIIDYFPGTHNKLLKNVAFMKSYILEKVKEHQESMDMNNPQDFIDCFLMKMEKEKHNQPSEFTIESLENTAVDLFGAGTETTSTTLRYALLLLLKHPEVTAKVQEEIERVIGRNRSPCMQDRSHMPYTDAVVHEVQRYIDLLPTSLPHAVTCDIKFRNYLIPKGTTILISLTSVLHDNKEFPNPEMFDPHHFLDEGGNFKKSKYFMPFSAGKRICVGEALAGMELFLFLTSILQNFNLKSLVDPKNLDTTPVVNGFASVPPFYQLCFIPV
Sequence of DNA dC->dU-editing enzyme APOBEC-3G (Q9HC16 whole entry): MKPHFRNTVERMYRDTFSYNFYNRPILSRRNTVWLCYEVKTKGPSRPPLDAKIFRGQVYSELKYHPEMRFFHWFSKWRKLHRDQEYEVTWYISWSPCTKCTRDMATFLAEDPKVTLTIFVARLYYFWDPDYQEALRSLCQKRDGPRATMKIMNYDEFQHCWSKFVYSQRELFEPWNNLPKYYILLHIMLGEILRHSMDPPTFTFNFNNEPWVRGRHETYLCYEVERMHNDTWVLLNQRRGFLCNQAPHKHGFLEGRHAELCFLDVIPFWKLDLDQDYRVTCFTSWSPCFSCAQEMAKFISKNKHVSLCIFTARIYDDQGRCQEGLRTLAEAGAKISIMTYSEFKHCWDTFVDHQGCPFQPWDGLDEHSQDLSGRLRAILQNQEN
Sequence of DNA dC->dU-editing enzyme APOBEC-3A (P31941 whole entry): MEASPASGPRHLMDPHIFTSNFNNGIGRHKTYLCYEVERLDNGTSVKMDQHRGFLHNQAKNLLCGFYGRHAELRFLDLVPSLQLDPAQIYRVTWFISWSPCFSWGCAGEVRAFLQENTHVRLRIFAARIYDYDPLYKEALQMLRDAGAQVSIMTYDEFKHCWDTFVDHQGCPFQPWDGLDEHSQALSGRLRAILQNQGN
Sequence of Peroxisome proliferator-activated receptor gamma/Nuclear receptor coactivator 2 (P37231 whole entry): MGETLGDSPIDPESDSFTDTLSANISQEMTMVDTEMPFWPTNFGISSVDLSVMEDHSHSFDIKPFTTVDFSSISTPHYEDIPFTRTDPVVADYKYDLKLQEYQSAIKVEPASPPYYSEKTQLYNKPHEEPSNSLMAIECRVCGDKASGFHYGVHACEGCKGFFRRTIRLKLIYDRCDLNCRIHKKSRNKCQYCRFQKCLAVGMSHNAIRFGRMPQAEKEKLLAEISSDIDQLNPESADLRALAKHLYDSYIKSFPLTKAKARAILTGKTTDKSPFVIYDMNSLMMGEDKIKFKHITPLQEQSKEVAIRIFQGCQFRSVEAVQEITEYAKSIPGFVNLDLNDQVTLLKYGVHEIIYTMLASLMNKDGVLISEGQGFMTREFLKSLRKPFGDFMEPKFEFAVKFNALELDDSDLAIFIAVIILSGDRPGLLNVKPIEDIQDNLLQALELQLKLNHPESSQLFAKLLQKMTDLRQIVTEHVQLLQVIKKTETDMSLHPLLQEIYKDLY
Sequence of Peroxisome proliferator-activated receptor gamma/Nuclear receptor coactivator 2 (Q15596 whole entry, further chain): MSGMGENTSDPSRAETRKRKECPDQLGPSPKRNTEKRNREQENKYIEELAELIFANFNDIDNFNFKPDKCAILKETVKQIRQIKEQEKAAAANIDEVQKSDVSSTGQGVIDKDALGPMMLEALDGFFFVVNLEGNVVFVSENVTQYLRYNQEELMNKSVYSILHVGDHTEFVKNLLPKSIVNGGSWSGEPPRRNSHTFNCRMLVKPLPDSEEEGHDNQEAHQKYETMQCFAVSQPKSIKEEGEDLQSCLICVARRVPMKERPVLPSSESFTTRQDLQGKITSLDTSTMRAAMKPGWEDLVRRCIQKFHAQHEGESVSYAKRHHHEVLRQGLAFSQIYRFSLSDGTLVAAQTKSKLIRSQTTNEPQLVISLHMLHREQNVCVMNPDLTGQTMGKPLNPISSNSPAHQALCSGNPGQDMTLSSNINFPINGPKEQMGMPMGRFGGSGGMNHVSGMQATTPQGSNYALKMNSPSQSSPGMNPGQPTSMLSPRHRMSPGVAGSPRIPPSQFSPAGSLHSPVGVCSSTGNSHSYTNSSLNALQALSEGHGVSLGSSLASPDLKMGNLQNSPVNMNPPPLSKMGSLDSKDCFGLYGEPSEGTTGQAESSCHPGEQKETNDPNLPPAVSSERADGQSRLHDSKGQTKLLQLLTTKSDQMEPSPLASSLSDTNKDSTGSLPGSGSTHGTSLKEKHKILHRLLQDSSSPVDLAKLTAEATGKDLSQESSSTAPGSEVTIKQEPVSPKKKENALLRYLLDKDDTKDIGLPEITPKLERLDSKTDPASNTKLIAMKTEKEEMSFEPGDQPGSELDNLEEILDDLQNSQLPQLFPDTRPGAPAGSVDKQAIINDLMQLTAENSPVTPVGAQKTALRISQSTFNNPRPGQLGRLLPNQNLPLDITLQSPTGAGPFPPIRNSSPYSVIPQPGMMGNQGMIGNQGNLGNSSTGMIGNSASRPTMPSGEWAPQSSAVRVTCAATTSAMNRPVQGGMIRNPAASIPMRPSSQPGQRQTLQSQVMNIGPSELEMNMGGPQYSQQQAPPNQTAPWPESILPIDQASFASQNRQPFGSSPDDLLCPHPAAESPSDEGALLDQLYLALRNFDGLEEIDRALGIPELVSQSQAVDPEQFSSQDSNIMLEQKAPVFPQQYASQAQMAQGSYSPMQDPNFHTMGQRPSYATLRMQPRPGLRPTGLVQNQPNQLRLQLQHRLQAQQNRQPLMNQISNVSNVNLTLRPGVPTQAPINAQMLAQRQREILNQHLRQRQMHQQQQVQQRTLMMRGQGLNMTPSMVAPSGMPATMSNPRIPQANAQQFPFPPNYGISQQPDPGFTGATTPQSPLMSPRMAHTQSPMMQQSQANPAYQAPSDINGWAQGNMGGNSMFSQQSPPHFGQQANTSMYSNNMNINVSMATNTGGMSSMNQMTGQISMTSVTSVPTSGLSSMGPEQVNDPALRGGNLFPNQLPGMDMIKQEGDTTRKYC
Sequence of Peroxisome proliferator-activated receptor gamma/Nuclear receptor coactivator 3 (P37231 whole entry): as the sequence (P37231 whole entry) above
Sequence of Peroxisome proliferator-activated receptor gamma/Nuclear receptor coactivator 3 (Q9Y6Q9 whole entry, further chain): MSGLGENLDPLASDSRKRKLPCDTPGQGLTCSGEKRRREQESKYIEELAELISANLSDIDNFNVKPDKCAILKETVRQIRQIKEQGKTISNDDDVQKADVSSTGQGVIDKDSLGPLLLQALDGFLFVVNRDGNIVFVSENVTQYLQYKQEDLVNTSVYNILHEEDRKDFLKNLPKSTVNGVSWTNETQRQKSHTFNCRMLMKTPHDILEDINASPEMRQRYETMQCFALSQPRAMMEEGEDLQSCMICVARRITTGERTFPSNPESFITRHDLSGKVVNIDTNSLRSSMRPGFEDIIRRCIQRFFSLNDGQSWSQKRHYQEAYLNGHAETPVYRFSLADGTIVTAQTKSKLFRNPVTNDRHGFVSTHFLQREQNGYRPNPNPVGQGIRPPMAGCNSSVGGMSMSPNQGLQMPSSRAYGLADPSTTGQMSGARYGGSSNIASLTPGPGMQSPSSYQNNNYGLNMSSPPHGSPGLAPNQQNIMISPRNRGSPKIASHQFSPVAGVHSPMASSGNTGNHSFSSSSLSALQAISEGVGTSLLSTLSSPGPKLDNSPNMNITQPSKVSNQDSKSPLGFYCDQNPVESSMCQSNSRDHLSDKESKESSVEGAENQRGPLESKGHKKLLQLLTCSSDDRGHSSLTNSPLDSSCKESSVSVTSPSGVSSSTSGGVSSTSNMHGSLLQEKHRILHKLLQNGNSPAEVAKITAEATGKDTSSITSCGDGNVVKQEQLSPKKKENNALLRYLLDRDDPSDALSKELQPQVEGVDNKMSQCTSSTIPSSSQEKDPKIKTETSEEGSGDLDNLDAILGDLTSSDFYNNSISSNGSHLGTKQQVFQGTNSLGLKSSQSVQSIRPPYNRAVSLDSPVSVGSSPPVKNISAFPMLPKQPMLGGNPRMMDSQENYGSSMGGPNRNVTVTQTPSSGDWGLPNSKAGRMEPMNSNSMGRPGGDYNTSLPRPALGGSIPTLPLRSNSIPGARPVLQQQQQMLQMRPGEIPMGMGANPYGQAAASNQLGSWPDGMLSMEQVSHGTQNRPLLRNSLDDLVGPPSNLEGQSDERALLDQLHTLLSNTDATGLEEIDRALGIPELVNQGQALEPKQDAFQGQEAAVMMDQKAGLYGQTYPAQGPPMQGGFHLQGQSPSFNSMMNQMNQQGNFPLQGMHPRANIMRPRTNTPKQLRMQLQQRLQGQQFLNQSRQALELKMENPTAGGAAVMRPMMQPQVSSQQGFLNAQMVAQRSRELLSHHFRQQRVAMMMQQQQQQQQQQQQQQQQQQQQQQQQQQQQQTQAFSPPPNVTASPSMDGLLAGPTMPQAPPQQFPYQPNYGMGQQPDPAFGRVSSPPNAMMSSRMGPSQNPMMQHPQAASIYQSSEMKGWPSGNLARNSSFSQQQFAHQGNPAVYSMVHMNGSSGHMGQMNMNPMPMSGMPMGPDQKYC

Regarding `NCCC[C@@H](CC(=O)N[C@@H]1CCNC[C@H]1C(=O)N[C@H](CC(=O)N[C@@H](CCC(=O)O)CC(=O)O)Cc1c[nH]c2ccccc12)NC(=O)C[C@H](Cc1c[nH]c2ccccc12)NC(=O)[C@@H]1CNCC[C@H]1N`, the AC50 is 31.6 µM (inconclusive) on Cytochrome P450 2C9 and 39.8 µM (inconclusive) at Cytochrome P450 2D6 [1].

Regarding `Cc1ccc2c(c1)N(CC(=O)NC1CCCc3ccccc31)C(=O)CO2` (stereo not drawn), the IC50 on Estrogen receptor is listed as > 50 µM (not active).

Take `CCn1c(=O)cc(SCC(=O)NCC2CCCO2)c2ccccc21` (stereo not drawn): the EC50 in test [2] was > 79.4 µM (inactive); in test [3], > 79.4 µM (not active); in test [4], > 79.4 µM (not active).

For `CC(C)C[C@@H](CC(=O)N[C@@H](CCC(=O)O)CC(=O)O)NC(=O)[C@@H]1CNCC[C@H]1NC(=O)C[C@@H](NC(=O)C[C@H](CO)NC(=O)[C@@H]1CNCC[C@H]1N)C(C)C`, the AC50 at Cytochrome P450 2C9 was 6.31 µM (inconclusive).

`O=c1c(-c2ccccc2)c(O)c2ccccc2n1-c1ccccc1`: the AC50 at CAAX prenyl protease 2 was 5.31 µM (active).

For the compound `CCOCCCNC(=O)c1cnc2ccc(S(=O)(=O)Nc3cccc(OC)c3)cc2c1O`, the IC50 against Estrogen receptor is reported as 35.2 µM (not active).

Consider `O=[N+]([O-])c1ccc2c(c1NC1CCCCC1)=NC1(CCCCC1)[N+]=2[O-]`, for which the AC50 was 3.16 µM (inconclusive) at Cytochrome P450 3A4 and 14.1 µM (inconclusive) at Cytochrome P450 2D6 [5]. In [6], the IC50 was > 50 µM (not active).

As to `CC(=O)O[C@@H]1CC[C@]2(C)[C@H]3CC[C@]4(C)[C@H](C[C@H]5CCCC[C@@]54C(C)=O)[C@@H]3CC(=O)[C@@]2(O)C1`, at Cytochrome P450 2C9, the AC50 was 25.1 µM (inconclusive).

`COCc1nnc(NC(=O)CCSc2ccccc2)s1`: the EC50 in [7] is > 32 µM (inactive).

In the case of `COc1ccc(/C=C2\Sc3ccc(C(=O)NC4CC4)cc3N(C)C2=O)cc1OC`, in test [7], the EC50 was > 32 µM (inactive).

For the compound `Cc1ccccc1NC(=S)Nc1cccc2cnccc12`, the IC50 in [6] is > 50 µM (not active).

For `CCCC[n+]1c(C)sc2cc(OC)ccc21`, the IC50 was > 100 µM (inactive) in [8] and 36 µM (active) in test [9].

In the case of `COc1ccccc1C1=NN(C(S)=Nc2ccccc2)C(c2ccco2)C1` (stereo not drawn), the EC50 in [2] was 19.7 µM (inactive); in [3] it was > 79.4 µM (not active); in test [4] it was > 79.4 µM (not active).

For the compound `O=C(NCCC1=CCCCC1)Nc1ccc2nc(-c3ccco3)c(-c3ccco3)nc2c1`, the half-inhibitory concentration (IC50) in test [10] is 2.73 µM (active).

In the case of `COc1cc(C(=S)NCc2ccc(O)cc2)ccc1O`, the IC50 is > 100 µM (inactive) in [11] and 10.1 µM (active) in [10].

For the compound `C[N+](C)(C)CCCCCC(=O)C=NO`, the results for the IC50 in [8] and in test [9] were 12.6 µM (active) and 5.54 µM (active), respectively.

For the compound `COc1cc(C(=S)NCc2ccc(C)cc2C)ccc1O`, the IC50 in [11] is > 100 µM (inactive); in [10], 1.64 µM (active).
